{
  "source": "PubChem BioAssay AID1259407",
  "about": "(Chemical Carcinogenesis Research Information System (CCRIS), 2018)",
  "tested_on": "CCRIS mutagenicity, Ames/micronucleus/aberration tests",
  "assay": "CCRIS mutagenicity studies",
  "key": {"[1]": {"details": "Test System: AMES SALMONELLA TYPHIMURIUM, Strain/Indicator: TA98, Metabolic Activation: NONE, Method: STANDARD PLATE"}, "[2]": {"details": "Test System: AMES SALMONELLA TYPHIMURIUM, Strain/Indicator: TA98, Metabolic Activation: RAT, LIVER, S-9, AROCLOR 1254, Method: STANDARD PLATE"}, "[3]": {"details": "Test System: AMES SALMONELLA TYPHIMURIUM, Strain/Indicator: TA100, Metabolic Activation: NONE, Method: STANDARD PLATE"}, "[4]": {"details": "Test System: AMES SALMONELLA TYPHIMURIUM, Strain/Indicator: TA100, Metabolic Activation: RAT, LIVER, S-9, AROCLOR 1254, Method: STANDARD PLATE"}, "[5]": {"details": "Test System: AMES SALMONELLA TYPHIMURIUM, Strain/Indicator: TA1535, Metabolic Activation: NONE, Method: STANDARD PLATE"}, "[6]": {"details": "Test System: AMES SALMONELLA TYPHIMURIUM, Strain/Indicator: TA1535, Metabolic Activation: RAT, LIVER, S-9, AROCLOR 1254, Method: STANDARD PLATE"}, "[7]": {"details": "Test System: AMES SALMONELLA TYPHIMURIUM, Strain/Indicator: TA1537, Metabolic Activation: NONE, Method: STANDARD PLATE"}, "[8]": {"details": "Test System: AMES SALMONELLA TYPHIMURIUM, Strain/Indicator: TA1537, Metabolic Activation: RAT, LIVER, S-9, AROCLOR 1254, Method: STANDARD PLATE"}},
  "note": "Active and inactive are the calls of the source. How the calls were made is not given here.",
  "data": [
    {"smiles": "OC/C=C/c1ccccc1", "values": [
      {"measurement": "mutagenic call", "setting": "Test System: AMES SALMONELLA TYPHIMURIUM, Strain/Indicator: TA98, Metabolic Activation: HAMSTER, LIVER, S-9, AROCLOR 1254 (2.5-20%), Method: PREINCUBATION", "value": "inactive; negative"},
      {"measurement": "mutagenic call", "setting": "Test System: AMES SALMONELLA TYPHIMURIUM, Strain/Indicator: TA98, Metabolic Activation: HAMSTER, LIVER, S-9, AROCLOR 1254, Method: STANDARD PLATE", "value": "inactive; negative"},
      {"measurement": "mutagenic call", "setting": "[1]", "value": "inactive; negative"},
      {"measurement": "mutagenic call", "setting": "[2]", "value": "inactive; negative"},
      {"measurement": "mutagenic call", "setting": "Test System: AMES SALMONELLA TYPHIMURIUM, Strain/Indicator: TA100, Metabolic Activation: HAMSTER, LIVER, S-9, AROCLOR 1254 (2.5-20%), Method: PREINCUBATION", "value": "inactive; negative"},
      {"measurement": "mutagenic call", "setting": "Test System: AMES SALMONELLA TYPHIMURIUM, Strain/Indicator: TA100, Metabolic Activation: HAMSTER, LIVER, S-9, AROCLOR 1254, Method: STANDARD PLATE", "value": "inactive; negative"},
      {"measurement": "mutagenic call", "setting": "[3]", "value": "inactive; negative"},
      {"measurement": "mutagenic call", "setting": "[4]", "value": "inactive; negative"},
      {"measurement": "mutagenic call", "setting": "Test System: AMES SALMONELLA TYPHIMURIUM, Strain/Indicator: TA102, Metabolic Activation: HAMSTER, LIVER, S-9, AROCLOR 1254, Method: PREINCUBATION", "value": "inactive; negative"},
      {"measurement": "mutagenic call", "setting": "Test System: AMES SALMONELLA TYPHIMURIUM, Strain/Indicator: TA102, Metabolic Activation: NONE, Method: PREINCUBATION", "value": "inactive; negative"},
      {"measurement": "mutagenic call", "setting": "Test System: AMES SALMONELLA TYPHIMURIUM, Strain/Indicator: TA102, Metabolic Activation: RAT, LIVER, S-9, AROCLOR 1254, Method: PREINCUBATION", "value": "inactive; negative"},
      {"measurement": "mutagenic call", "setting": "Test System: AMES SALMONELLA TYPHIMURIUM, Strain/Indicator: TA1535, Metabolic Activation: HAMSTER, LIVER, S-9, AROCLOR 1254, Method: STANDARD PLATE", "value": "inactive; negative"},
      {"measurement": "mutagenic call", "setting": "[5]", "value": "inactive; negative"},
      {"measurement": "mutagenic call", "setting": "[6]", "value": "inactive; negative"},
      {"measurement": "mutagenic call", "setting": "Test System: AMES SALMONELLA TYPHIMURIUM, Strain/Indicator: TA1537, Metabolic Activation: HAMSTER, LIVER, S-9, AROCLOR 1254, Method: STANDARD PLATE", "value": "inactive; negative"},
      {"measurement": "mutagenic call", "setting": "Test System: AMES SALMONELLA TYPHIMURIUM, Strain/Indicator: TA1537, Metabolic Activation: NONE, Method: PREINCUBATION", "value": "inactive; negative"},
      {"measurement": "mutagenic call", "setting": "[7]", "value": "inactive; negative"},
      {"measurement": "mutagenic call", "setting": "[8]", "value": "inactive; negative"},
      {"measurement": "mutagenic call", "setting": "Test System: AMES SALMONELLA TYPHIMURIUM, Strain/Indicator: TA1538, Metabolic Activation: HAMSTER, LIVER, S-9, AROCLOR 1254, Method: STANDARD PLATE", "value": "inactive; negative"},
      {"measurement": "mutagenic call", "setting": "Test System: AMES SALMONELLA TYPHIMURIUM, Strain/Indicator: TA1538, Metabolic Activation: NONE, Method: STANDARD PLATE", "value": "inactive; negative"},
      {"measurement": "mutagenic call", "setting": "Test System: AMES SALMONELLA TYPHIMURIUM, Strain/Indicator: TA1538, Metabolic Activation: RAT, LIVER, S-9, AROCLOR 1254, Method: STANDARD PLATE", "value": "inactive; negative"},
      {"measurement": "mutagenic call", "setting": "Test System: MOUSE LYMPHOMA, Strain/Indicator: L5178Y (TK+/TK-), Metabolic Activation: NONE, Method: SUSPENSION/PLATE", "value": "active; positive. reevaluation of results: inconclusive"},
      {"measurement": "mutagenic call", "setting": "Test System: MOUSE LYMPHOMA, Strain/Indicator: L5178Y (TK+/TK-), Metabolic Activation: RAT, LIVER, S-9, AROCLOR 1254, Method: SUSPENSION/PLATE", "value": "active; positive. reevaluation of results: positive"},
      {"measurement": "mutagenic call", "setting": "Test System: Mouse lymphoma, Strain/Indicator: L5178Y (tk+/tk-), Metabolic Activation: None, Method: Suspension/plate", "value": "inactive; negative"},
      {"measurement": "mutagenic call", "setting": "Test System: Mouse lymphoma, Strain/Indicator: L5178Y (tk+/tk-), Metabolic Activation: Rat, Liver, S-9, Aroclor 1254, Method: Suspension/plate", "value": "inactive; negative"}
    ]},
    {"smiles": "O=[N+]([O-])c1cccc2nc3cccc([N+](=O)[O-])c3nc12", "values": [
      {"measurement": "mutagenic call", "setting": "Test System: AMES SALMONELLA TYPHIMURIUM, Strain/Indicator: TA98(NR), Metabolic Activation: NONE, Method: PREINCUBATION", "value": "active; positive"},
      {"measurement": "mutagenic call", "setting": "Test System: AMES SALMONELLA TYPHIMURIUM, Strain/Indicator: TA98, Metabolic Activation: NONE, Method: PREINCUBATION", "value": "active; positive"}
    ]},
    {"smiles": "CCN(N=O)C(=O)Nc1ccccc1", "values": [
      {"measurement": "mutagenic call", "setting": "End Point: IN VITRO CHROMOSOMAL ABERRATIONS, Test System: CHINESE HAMSTER V79-E CELLS, Metabolic Activation: NONE", "value": "active; positive (structural changes)"}
    ]},
    {"smiles": "CCOC(=O)C(C)=O", "values": [
      {"measurement": "mutagenic call", "setting": "[1]", "value": "inactive; negative"},
      {"measurement": "mutagenic call", "setting": "[2]", "value": "inactive; negative"},
      {"measurement": "mutagenic call", "setting": "[3]", "value": "inactive; negative"},
      {"measurement": "mutagenic call", "setting": "[4]", "value": "inactive; negative"},
      {"measurement": "mutagenic call", "setting": "[5]", "value": "inactive; negative"},
      {"measurement": "mutagenic call", "setting": "[6]", "value": "inactive; negative"},
      {"measurement": "mutagenic call", "setting": "[7]", "value": "inactive; negative"},
      {"measurement": "mutagenic call", "setting": "[8]", "value": "inactive; negative"}
    ]},
    {"smiles": "Cc1c(O)cc([N+](=O)[O-])cc1[N+](=O)[O-]", "values": [
      {"measurement": "mutagenic call", "setting": "Test System: AMES SALMONELLA TYPHIMURIUM, Strain/Indicator: TA98, Metabolic Activation: RAT, LIVER, S-9, KANECHLOR 500, Method: PREINCUBATION", "value": "inactive; negative"},
      {"measurement": "mutagenic call", "setting": "Test System: AMES SALMONELLA TYPHIMURIUM, Strain/Indicator: TA100, Metabolic Activation: NONE, Method: PREINCUBATION", "value": "inactive; negative"},
      {"measurement": "mutagenic call", "setting": "Test System: AMES SALMONELLA TYPHIMURIUM, Strain/Indicator: TA100, Metabolic Activation: RAT, LIVER, S-9, KANECHLOR 500, Method: PREINCUBATION", "value": "inactive; negative"}
    ]},
    {"smiles": "CC(=O)N(O)c1ccc(Oc2c(Cl)cc(Cl)cc2Cl)cc1", "values": [
      {"measurement": "mutagenic call", "setting": "[3]", "value": "inactive; negative"},
      {"measurement": "mutagenic call", "setting": "Test System: AMES SALMONELLA TYPHIMURIUM, Strain/Indicator: TA100, Metabolic Activation: RAT, LIVER, S-9, KANECLOR 500, Method: STANDARD PLATE", "value": "active; positive"}
    ]}
  ]
}
